Data reported in article PMC6155811, “Effect of Phenolic Compounds from Elderflowers on Glucose- and Fatty Acid Uptake in Human Myotubes and HepG2-Cells” (Molecules : A Journal of Synthetic Chemistry and Natural …, 2017).

What was measured:
[1] = system: human skeletal muscle cells; assay: Glucose uptake in human myotubes ([14C(U)]-glucose); format: cell-based; details: 10 µM, 2 days, vs 0.1% DMSO control; mean ± SEM
Experimental: Figure 2 Effects of elderflower extracts, constituents and metabolites on glucose uptake in human myotubes. Myotubes were treated with (A) 12.5, 25 and 50 µg/mL of different crude extracts; (B,C) 0.1, 1 and 10 µM of elderflower phenolic compounds and metabolites for 2 days. Thereafter, the cells were exposed to [^14C(U)]-glucose (1 μCi/mL, 100 μM) for 4 h as described in the Materials and Methods section. 22-S-hydroxycholesterol (22-SHC) (10 μM) was used as positive control. The figures show [^14C(U)]-glucose uptake given as means ± standard error of the mean (SEM) (n = 3) from separate experiments. * p < 0.05 vs. control (0.1% dimethyl sulfoxide (DMSO)).
(§1) Satellite cells were isolated from the Musculus obliquus internus abdominis of four healthy donors, age 34.8 (±19) years, body mass index 22.9 (±2.7) kg/m^2, fasting glucose 4.9 (±0.6) mM, insulin, plasma lipids and blood pressure within normal range and no family history of diabetes. The muscle biopsies were obtained with informed consent and approval by the National Committee for Research Ethics (Oslo, Norway). The cells were cultured on 96-well CellBIND microplates DMEM-Glutamax (5.5 mM glucose), 2% fetal bovine serum, 2% Ultroser G, penicillin (100 units/mL), streptomycin (100 μg/mL) and amphotericin B (1.25 μg/mL) for proliferation. At 70%–80% confluence, the growth medium was replaced by DMEM-Glutamax (5.5 mM glucose) supplemented with 2% fetal bovine serum, penicillin (100 units/mL), streptomycin (100 μg/mL), amphotericin B (1.25 μg/mL) and insulin (25 pM), to induce differentiation. The cells were cultured in humidified 5% CO2 atmosphere at 37 °C, and the medium was changed every 2–3 days. Experiments were performed after 7 days of differentiation. 22-S-hydroxycholesterol (22-SHC) (10 µM) was used as positive control in the glucose uptake assay. The positive control used in the oleic acid assay is the synthetic liver X receptor (LXR) agonist T0901317 (10 µm).
(§2) Cells were exposed to test samples solved in 0.1% DMSO that were added directly to the medium for 2 days for myotubes and 24 h for HepG2 cells. Thereafter, cells were exposed to [^14C(U)]-glucose (1 μCi/mL, 100 μM) or [^14C]-oleic acid (37 kBq, 100 µM) for 4 h. A 96-well UniFilter-96 GF7B microplate (Perkin Elmer, Waltham, MA, USA) was mounted on top of the CellBIND plate (Corning Life-Sciences (Schiphol-Rijk, The Netherlands) and CO2 production was measured. After incubation the cells were washed twice with ice-cold phosphate buffered saline (PBS), lysed in 0.1 M NaOH, and radioactivity measured by liquid scintillation counting. The protein content of each sample was determined and glucose uptake was calculated using protein levels for standardization.

[2] = molecular target: T1, Porcine pancreatic α-amylase (Sus scrofa, UniProt P00690); assay: α-Amylase inhibitory activity; format: biochemical; details: phenolic compounds and metabolites; IC50 ± SD
T1 construct: purchased Sigma-Aldrich Chemie GmbH
T1 sequence (P00690 16-511): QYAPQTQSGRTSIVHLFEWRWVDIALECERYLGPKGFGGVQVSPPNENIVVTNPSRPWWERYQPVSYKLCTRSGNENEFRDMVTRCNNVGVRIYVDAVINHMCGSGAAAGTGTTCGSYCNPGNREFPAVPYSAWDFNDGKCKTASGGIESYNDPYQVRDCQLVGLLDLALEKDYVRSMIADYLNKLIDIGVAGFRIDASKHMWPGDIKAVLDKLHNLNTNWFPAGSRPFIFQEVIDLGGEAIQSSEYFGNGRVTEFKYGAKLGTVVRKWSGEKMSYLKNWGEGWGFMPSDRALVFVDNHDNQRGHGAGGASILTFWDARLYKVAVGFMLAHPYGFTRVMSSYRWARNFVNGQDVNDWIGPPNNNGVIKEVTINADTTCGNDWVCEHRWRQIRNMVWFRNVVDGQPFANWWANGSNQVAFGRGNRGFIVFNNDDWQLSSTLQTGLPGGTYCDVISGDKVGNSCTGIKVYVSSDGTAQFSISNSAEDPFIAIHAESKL
Experimental: The α-amylase assay was performed as described by Gella, et al.. Porcine pancreatic α-amylase (EC 3.2.1.1) was purchased from Sigma-Aldrich Chemie GmbH.

[3] = system: HepG2-cells; assay: Glucose uptake in HepG2-cells ([14C(U)]-glucose); format: cell-based, human; details: 24 h, vs 0.1% DMSO control
Experimental: The human hepatoblastoma cell line HepG2 (HB-8065, ATCC, Manassas, VA, USA) was cultured in DMEM-Glutamax (5.5 mM glucose) supplemented with 10% fetal bovine serum, streptomycin (100 μg/mL) and penicillin (100 units/mL) at 37 °C in 5% CO2.
as §2

[4] = molecular target: T2, 15-lipoxygenase (15-LO) from soybeans (Glycine max, UniProt P08170); assay: Inhibition of 15-lipoxygenase; format: biochemical, soybean; details: phenolic compounds and metabolites; IC50 ± SD; read-out: 15-LO IC50
T2 construct: 15-lipoxygenase (15-LO) from soybeans; purchased Sigma-Aldrich (St. Louis, MO, USA); host or cells: soybeans
T2 sequence (P08170 1-839): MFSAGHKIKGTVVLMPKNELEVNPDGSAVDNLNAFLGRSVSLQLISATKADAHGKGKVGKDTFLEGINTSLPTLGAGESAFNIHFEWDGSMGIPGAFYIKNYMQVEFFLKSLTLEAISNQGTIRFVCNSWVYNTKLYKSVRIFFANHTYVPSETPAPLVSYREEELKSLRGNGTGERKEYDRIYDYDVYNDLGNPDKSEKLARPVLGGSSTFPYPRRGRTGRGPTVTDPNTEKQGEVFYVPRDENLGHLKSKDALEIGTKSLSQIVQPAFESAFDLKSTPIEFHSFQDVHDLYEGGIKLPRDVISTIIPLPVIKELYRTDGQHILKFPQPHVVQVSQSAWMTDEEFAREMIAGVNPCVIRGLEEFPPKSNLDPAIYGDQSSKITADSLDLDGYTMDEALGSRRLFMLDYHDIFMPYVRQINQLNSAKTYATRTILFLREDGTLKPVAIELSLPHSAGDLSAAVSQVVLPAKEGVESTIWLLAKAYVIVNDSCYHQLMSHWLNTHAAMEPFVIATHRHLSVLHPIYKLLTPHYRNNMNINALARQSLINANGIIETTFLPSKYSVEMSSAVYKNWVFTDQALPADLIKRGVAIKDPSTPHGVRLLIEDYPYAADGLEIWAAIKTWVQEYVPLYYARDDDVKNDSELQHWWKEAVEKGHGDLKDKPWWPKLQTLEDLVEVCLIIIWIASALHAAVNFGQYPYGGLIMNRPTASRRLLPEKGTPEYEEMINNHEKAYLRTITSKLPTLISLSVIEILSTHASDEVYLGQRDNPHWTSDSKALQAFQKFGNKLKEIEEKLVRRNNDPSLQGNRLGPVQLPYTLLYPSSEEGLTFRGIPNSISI
Experimental: Test substances were dissolved in DMSO or water, and the assay was carried out as previously described.

[5] = system: human skeletal muscle cells; assay: Oleic acid uptake in human myotubes ([14C]-oleic acid); format: cell-based; details: 10 µM (highest concentration tested), 2 days, vs 0.1% DMSO control
Experimental: Figure 3 Effects of elderflower extracts, constituents and metabolites on oleic acid uptake in human myotubes. Myotubes were treated with (A) 12.5, 25 and 50 µg/mL of different crude extracts; (B,C) 0.1, 1 and 10 µM of elderflower phenolic compounds and metabolites for 2 days. Thereafter, the cells were exposed to [^14C]-oleic acid (37 kBq, 100 µM) for 4 h as described in Materials and Methods. A synthetic liver X receptor (LXR) agonist T0901317 (10 μM) was used as positive control. The figures show [^14C]-oleic acid uptake given as means ± SEM (n = 3) from separate experiments. * p < 0.05 vs. control (0.1% DMSO).
as §1, §2

[6] = DPPH radical scavenging; details: IC50 ± SD; for IC50: phenolic compounds and metabolites
Experimental: Scavenging activity towards the DPPH radical was carried out as previously described. Test substances were dissolved in DMSO or water. Values were corrected for absorbance of the test substances.

[7] = molecular target: T3, xanthine oxidase from bovine milk (Bos taurus, UniProt P80457); assay: Inhibition of xanthine oxidase; format: biochemical; details: phenolic compounds and metabolites; IC50 ± SD; read-out: XO IC50
T3 construct: xanthine oxidase from bovine milk; purchased Sigma-Aldrich (St. Louis, MO, USA); host or cells: bovine milk
T3 sequence (P80457 whole entry): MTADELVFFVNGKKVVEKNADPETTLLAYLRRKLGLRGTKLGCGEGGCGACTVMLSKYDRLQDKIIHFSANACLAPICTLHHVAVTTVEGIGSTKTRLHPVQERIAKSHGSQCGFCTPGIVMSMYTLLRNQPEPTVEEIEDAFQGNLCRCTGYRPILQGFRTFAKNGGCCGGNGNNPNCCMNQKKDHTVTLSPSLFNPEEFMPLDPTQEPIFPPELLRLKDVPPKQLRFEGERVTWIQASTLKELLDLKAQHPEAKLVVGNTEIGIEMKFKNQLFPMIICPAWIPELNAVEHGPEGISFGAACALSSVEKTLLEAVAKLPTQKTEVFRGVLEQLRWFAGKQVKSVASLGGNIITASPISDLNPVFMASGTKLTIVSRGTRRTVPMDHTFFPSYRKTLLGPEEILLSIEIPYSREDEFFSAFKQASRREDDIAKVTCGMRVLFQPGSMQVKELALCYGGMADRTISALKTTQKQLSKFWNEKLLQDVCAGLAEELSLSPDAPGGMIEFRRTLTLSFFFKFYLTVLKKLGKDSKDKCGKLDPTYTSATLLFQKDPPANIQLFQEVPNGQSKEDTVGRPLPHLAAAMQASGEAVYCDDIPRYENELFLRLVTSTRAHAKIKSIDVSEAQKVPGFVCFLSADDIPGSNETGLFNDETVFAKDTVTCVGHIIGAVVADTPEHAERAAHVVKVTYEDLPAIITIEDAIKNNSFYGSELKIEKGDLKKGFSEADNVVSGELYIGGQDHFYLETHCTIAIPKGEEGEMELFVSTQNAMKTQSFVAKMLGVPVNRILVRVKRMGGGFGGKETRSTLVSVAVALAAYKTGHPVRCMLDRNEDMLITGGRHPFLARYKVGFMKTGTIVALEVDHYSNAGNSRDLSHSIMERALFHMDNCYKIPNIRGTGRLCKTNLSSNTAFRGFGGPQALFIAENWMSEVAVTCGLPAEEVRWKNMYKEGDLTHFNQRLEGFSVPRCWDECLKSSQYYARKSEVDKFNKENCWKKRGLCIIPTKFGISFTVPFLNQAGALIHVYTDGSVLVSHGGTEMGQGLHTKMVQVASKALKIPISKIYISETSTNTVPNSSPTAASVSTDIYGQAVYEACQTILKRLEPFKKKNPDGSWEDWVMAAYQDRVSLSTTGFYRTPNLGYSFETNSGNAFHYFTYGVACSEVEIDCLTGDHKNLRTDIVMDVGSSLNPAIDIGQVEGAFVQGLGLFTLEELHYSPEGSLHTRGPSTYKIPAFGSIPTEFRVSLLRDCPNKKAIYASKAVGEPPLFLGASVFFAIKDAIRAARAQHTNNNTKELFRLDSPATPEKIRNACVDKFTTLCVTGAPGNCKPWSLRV
Experimental: The XO inhibitory activity with hypoxanthine as the substrate was carried out previously described. Test substances were dissolved in DMSO or water.

[8] = system: HepG2-cells; assay: Oleic acid uptake in HepG2-cells ([14C]-oleic acid); format: cell-based, human; details: highest concentration tested
Experimental: as §2, with “Thereafter, cells were exposed to [^14C(U)]-glucose (1 μCi/mL, 100 μM) or [^14C]-oleic acid (37 kBq, 100 µM) for 4 h.” left out, “The protein content of each sample was determined and glucose uptake was calculated using protein levels for standardization.” left out

IC50 [2] [µM]	IC50 [4] [µM]	IC50 [6] [µM]	DPPH IC50 ([6]; crude extracts) [mg/L]	IC50 [7] [µM]	Compound	increase in glucose uptake [1]	maximal increase in glucose uptake [3]	increase in oleic acid uptake [5]	enhancement of oleic acid uptake [8]
3.6 ± 1.1	93.7 ± 3.7	10.6 ± 3.9	–	–	O=c1c(O)c(-c2ccc(O)cc2)oc2cc(O)cc(O)c12 [Kaempferol]	39.1% ± 5.8%	45.2% ± 2.6%	25.0% ± 3.0%	–
–	–	9.3 ± 1.5	2.8 ± 0.3	–	O=c1c(O)c(-c2ccc(O)c(O)c2)oc2cc(O)cc(O)c12 [Quercetin]	37.1% ± 4.6%	41.1% ± 3.2%	–	–
9.1 ± 1.1	106 ± 2.3	–	–	24.2 ± 5.3	O=C(/C=C/c1ccc(O)c(O)c1)O[C@@H]1C[C@](O)(C(=O)O)C[C@@H](O)[C@H]1O [Chlorogenic acid]	–	–	17.3% ± 2.5%	25.6% ± 4.6%
